Experimental data as given in paper PMC4436800 (Frontiers in Neuroscience, 2015).

Target: T1, Rhopr5HTR2b (R. prolixus serotonin type 2b receptor) (Rhodnius prolixus, UniProt A0A0H4TRR1)
T1 construct: gene 5HT-R2; complete open reading frame (Genbank KP325472) in pcDNA3.1, transiently expressed in CHOK1-aeq cells
T1 sequence (A0A0H4TRR1 1-703): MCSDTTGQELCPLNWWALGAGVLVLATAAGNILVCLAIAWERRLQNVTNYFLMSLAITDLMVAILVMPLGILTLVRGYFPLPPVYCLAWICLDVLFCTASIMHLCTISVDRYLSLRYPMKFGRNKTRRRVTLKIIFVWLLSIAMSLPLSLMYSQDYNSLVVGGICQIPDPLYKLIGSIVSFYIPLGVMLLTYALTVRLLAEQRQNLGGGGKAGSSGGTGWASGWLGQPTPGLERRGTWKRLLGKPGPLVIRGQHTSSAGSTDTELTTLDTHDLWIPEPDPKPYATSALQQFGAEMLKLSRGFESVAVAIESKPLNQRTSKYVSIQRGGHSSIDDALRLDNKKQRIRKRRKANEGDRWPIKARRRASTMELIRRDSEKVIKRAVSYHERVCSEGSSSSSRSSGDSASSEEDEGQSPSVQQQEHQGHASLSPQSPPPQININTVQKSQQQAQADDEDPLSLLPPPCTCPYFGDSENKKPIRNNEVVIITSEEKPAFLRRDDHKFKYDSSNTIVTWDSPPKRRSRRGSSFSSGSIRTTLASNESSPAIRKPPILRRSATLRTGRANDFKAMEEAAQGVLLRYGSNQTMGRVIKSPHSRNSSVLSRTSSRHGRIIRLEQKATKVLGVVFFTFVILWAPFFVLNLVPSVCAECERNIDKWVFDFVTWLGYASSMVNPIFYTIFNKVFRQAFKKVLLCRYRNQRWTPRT
Assay: aequorin luminescence, inhibition of […] serotonin response by […] antagonist
Assay type: cell-based

Structure (SMILES) | % inhibition at 10 μM (range for all five antagonists)
O=C(c1ccc(F)cc1)C1CCN(CCn2c(=O)[nH]c3ccccc3c2=O)CC1 [ketanserin] | ~ 70–50 % inhibition at 10 μM (range for all five antagonists)
CC(C)NCC(O)COc1cccc2ccccc12 (stereo not drawn) [propranolol] | ~ 70–50 % inhibition at 10 μM (range for all five antagonists)
CN1CCC(=C2c3ccccc3C=Cc3ccccc32)CC1 [cyproheptadine] | ~ 70–50 % inhibition at 10 μM (range for all five antagonists)
CN1CCN2c3ccccc3Cc3ccccc3C2C1 (stereo not drawn) [mianserin] | ~ 70–50 % inhibition at 10 μM (range for all five antagonists)
O=C(CCCN1CCC2(CC1)C(=O)NCN2c1ccccc1)c1ccc(F)cc1 [spiperone] | ~ 70–50 % inhibition at 10 μM (range for all five antagonists)

Target: T1, Rhopr5HTR2b (R. prolixus serotonin type 2b receptor)
Assay: aequorin calcium luminescence assay, agonist dose-response in transfected CHOK1-aeq cells
Assay type: cell-based

Structure (SMILES) | EC50
CC(N)Cc1c[nH]c2ccc(O)cc12 (stereo not drawn) [alpha-methyl serotonin] | 3.2 µM
